Results: the Deep4Chem optical property database

Assay: solvent given as SMILES

Compound: O=C1c2ccccc2C(=O)c2cc(-c3ccc(N(c4ccccc4)c4ccccc4)cc3)ccc21
- absorption maximum (in C1CCOC1): 447 nm
- absorption maximum (in CCCCCC): 442 nm
- absorption maximum (in CCOC(C)=O): 446 nm
- absorption maximum (in CCOCC): 443 nm
- absorption maximum (in Cc1ccccc1): 454 nm
- absorption maximum (in ClC(Cl)(Cl)Cl): 457 nm
- absorption maximum (in ClCCl): 459 nm

Compound: CCN(CC)c1ccc2cc(/C=C/C3=CC(/C=C/c4cc5ccc(N(CC)CC)cc5oc4=O)=[O+][B-](F)(F)O3)c(=O)oc2c1
- absorption maximum (in CC#N): 630 nm
- absorption maximum (in CC(C)=O): 620 nm
- absorption maximum (in CCOC(C)=O): 604 nm
- absorption maximum (in CN(C)C=O): 641 nm
- absorption maximum (in CS(C)=O): 652 nm
- absorption maximum (in Cc1ccccc1): 598 nm
- absorption maximum (in ClC(Cl)Cl): 615 nm
- absorption maximum (in ClCCl): 625 nm

Compound: Cc1ccc2nc3c(nc2c1)c(-c1ccccc1)nn3C
- absorption maximum (in C1CCCCC1): 424 nm
- absorption maximum (in C1CCOC1): 425 nm
- absorption maximum (in CC#N): 423 nm

Compound: O=Cc1cc2c(cc3ccc4cccc5ccc2c3c45)[nH]1
- absorption maximum (in CCOC(C)=O): 416 nm

Compound: Cc1cccc(-c2[nH]c(=O)n3c2-c2ccccc2C3=O)c1O
- absorption maximum (in CC#N): 391 nm
- absorption maximum (in CO): 395 nm
- absorption maximum (in ClCCl): 392 nm

Compound: c1ccc(-c2c3c(cc4c2-c2ccccc2C4)-c2ccccc2C3)cc1
- absorption maximum (in C1CCCCC1): 331 nm

Compound: N#CC(C#N)=Cc1ccc(-c2ccc(-c3nc4ccccc4s3)c(O)c2)o1
- absorption maximum (in ClCCl): 426 nm
- absorption maximum (in O): 394 nm

Compound: CCCCn1c2ccccc2c2ccc3c4cc(-c5ccc(OC)cc5)ccc4n(CCCC)c3c21
- absorption maximum (in ClC(Cl)Cl): 333 nm

Compound: Cc1cc(-c2ccc(-n3c4ccccc4c4ccccc43)cc2)nc(-c2ccc(-c3ccccc3)cc2)n1
- absorption maximum (in C1CCOC1): 341 nm
- absorption maximum (in CN(C)C=O): 341 nm
- absorption maximum (in Cc1ccccc1): 341 nm
- absorption maximum (in ClC(Cl)Cl): 341 nm

Compound: COc1ccc(/C=C/c2cc(/C=C/c3ccc(OC)cc3)nc(/C=C/c3ccc(N(c4ccccc4)c4ccccc4)cc3)n2)cc1
- absorption maximum (in ClCCl): 376 nm

Compound: Cc1cc(C)c(C2=C(c3c(C)sc(-c4ccc(-c5nc(-c6ccccc6)c(-c6ccccc6)[nH]5)cc4)c3C)C(F)(F)C(F)(F)C2(F)F)s1
- absorption maximum (in C1CCOC1): 332 nm

Compound: Cc1ccc2cc3c(=O)n(C)c(=O)n(C)c3nc2c1
- absorption maximum (in CC#N): 353 nm
- absorption maximum (in CC(C)O): 353 nm
- absorption maximum (in CCO): 353 nm
- absorption maximum (in CO): 352 nm
- absorption maximum (in ClC(Cl)Cl): 355 nm
- absorption maximum (in ClCCl): 355 nm

Compound: CC1=CC(C)=[N+]2C1=C(c1c3ccccc3c(-c3ccccc3)c3ccccc13)c1c(C)cc(C)n1[B-]2(F)F
- absorption maximum (in CC#N): 503 nm
- absorption maximum (in CCCCCC): 505 nm
- absorption maximum (in CCO): 504 nm
- absorption maximum (in CN(C)C=O): 507 nm
- absorption maximum (in Cc1ccccc1): 509 nm
- absorption maximum (in ClCCl): 507 nm

Compound: C[Si]1(C)c2cc(C#Cc3ccccc3)ccc2C=Cc2ccc(C#Cc3ccccc3)cc21
- absorption maximum (in ClCCl): 403 nm

Compound: COC(=O)/C(C#N)=c1\s/c(=c2/s/c(=C(/C#N)C(=O)OC)c3cc(-c4ccc(F)cc4)sc23)c2sc(-c3ccc(F)cc3)cc12
- absorption maximum (in Cc1ccccc1): 602 nm

Compound: COc1ccc(C2=[N+]3C(=Nc4c(-c5cc(OC)c(OC)c(OC)c5Br)c(-c5ccc(C(C)(C)C)cc5)c(-c5ccc(OC)cc5)n4[B-]3(F)F)C(c3cc(OC)c(OC)c(OC)c3Br)=C2c2ccc(C(C)(C)C)cc2)cc1
- absorption maximum (in Cc1ccccc1): 706 nm

Compound: COc1ccc(C2=Cc3c4ccccc4cc[n+]3[B-](F)(F)O2)cc1
- absorption maximum (in ClC(Cl)Cl): 410.5 nm

Compound: CC1=[N+]2C(=C(c3ccc4c(c3)Cc3ccccc3-4)c3ccc(C)n3[B-]2(F)F)C=C1c1cc2n(c1)[B-](F)(F)[N+]1=CC=CC1=C2c1c(C)cc(C)cc1C
- absorption maximum (in C1CCCCC1): 597.5 nm
- absorption maximum (in CCOC(C)=O): 598.5 nm

Compound: Cc1ccc(NC(=O)c2sc(Br)nc2C)cc1
- absorption maximum (in C1CCOC1): 301.5 nm
- absorption maximum (in CC#N): 281.6 nm
- absorption maximum (in CCCCCC): 286.9 nm
- absorption maximum (in CCOC(C)=O): 286.1 nm
- absorption maximum (in CN(C)C=O): 287.1 nm
- absorption maximum (in CO): 282.1 nm
- absorption maximum (in CS(C)=O): 283.5 nm
- absorption maximum (in ClC(Cl)Cl): 288.3 nm

Compound: COC(=O)c1ccc(/C=C2\C=C(c3ccc(C#N)cc3)OC2=O)cc1
- absorption maximum (in C1COCCO1): 404 nm

Compound: Cc1ccc(N(c2ccccc2)c2ccc3ccc4c(N(c5ccccc5)c5ccc(C)cc5)ccc5ccc2c3c54)cc1
- absorption maximum (in ClCCl): 428 nm

Compound: CC(C)(C)c1ccc2c(c1)c1cc(C(C)(C)C)ccc1n2-c1ccc(N(c2ccc(-c3ccc(-c4ccc(-c5ccc(-c6ccc(N(c7ccc(-n8c9ccc(C(C)(C)C)cc9c9cc(C(C)(C)C)ccc98)cc7)c7ccc(-n8c9ccc(C(C)(C)C)cc9c9cc(C(C)(C)C)ccc98)cc7)cc6)cc5)c5nsnc45)cc3)cc2)c2ccc(-n3c4ccc(C(C)(C)C)cc4c4cc(C(C)(C)C)ccc43)cc2)cc1
- absorption maximum (in ClCCl): 422 nm

Compound: Cc1nc2c(ccc3c2sc(/C=C/c2cc4c5c(c2)CCCN5CCC4)[n+]3C)s1
- absorption maximum (in CO): 574 nm
- absorption maximum (in ClC(Cl)Cl): 595 nm

Compound: COC(=O)C1=C(C(=O)OC)[Se](=O)[C@]23C1=C[C@H](c1ccccc12)c1ccccc13 (stereo partly specified)
- absorption maximum (in ClCCl): 341 nm

Compound: CCOC(=O)c1sc2nc(C)c(C)c(C#N)c2c1N
- absorption maximum (in c1ccccc1): 406 nm

Compound: COc1ccc(-c2cnc(/C=C/c3ccccc3)o2)cc1OC
- absorption maximum (in ClCCl): 350 nm

Compound: Oc1ccc2ccccc2c1/C=N/c1cc2nc3ccccc3nc2cc1/N=C/c1c(O)ccc2ccccc12
- absorption maximum (in CC#N): 420 nm

Compound: CCCCCCCCCCCCN1C(=O)c2c(c3ccc4cc(-c5ccc(C#N)cc5)c(OC)cc4c3c3c2ccc2cc(-c4ccc(C#N)cc4)c(OC)cc23)C1=O
- absorption maximum (in ClCCl): 427 nm

Compound: CCCC1(CCC)c2cc(-c3ccc4c(c3)C(CCC)(CCC)c3cc(-c5ccc6c(c5)C(CCC)(CCC)c5cc(C(C)(C)CC)ccc5-6)ccc3-4)ccc2-c2ccc(-c3ccc4c(c3)C(CCC)(CCC)c3cc(C(C)(C)CC)ccc3-4)cc21
- absorption maximum (in C1CCCCC1): 362 nm

Compound: CCCC1(CCC)c2ccccc2-c2ccc(-c3ccc4c(c3)C(CCC)(CCC)c3cc(-c5ccc6c(c5)C(CCC)(CCC)c5ccccc5-6)ccc3-4)cc21
- absorption maximum (in C1CCCCC1): 350 nm

Compound: CCCCOC(=O)c1cc(Oc2ccc(C(C)(C)C)cc2)c2c3c(Cl)cc4c5c(cc(Cl)c(c6c(Oc7ccc(C(C)(C)C)cc7)cc(C(=O)OCCCC)c1c26)c53)C(=O)N(c1c(C(C)C)cccc1C(C)C)C4=O
- absorption maximum (in Cc1ccccc1): 529 nm

Compound: CCCCCCn1c(=O)c2c3oc4ccccc4oc3c3c(=O)n(CCCCCC)c(=O)c3c2c1=O
- absorption maximum (in ClCCl): 395 nm

Compound: C(#Cc1nc2ccccc2s1)c1ccc(N(c2ccc(C#Cc3nc4ccccc4s3)cc2)c2ccc(C#Cc3nc4ccccc4s3)cc2)cc1
- absorption maximum (in Cc1ccccc1): 404 nm

Compound: COc1ccc(/C=C/c2ccccc2)cc1
- absorption maximum (in CC#N): 317 nm

Compound: CCC1(CC)c2cc(Br)ccc2-c2c1c1c(c3c2C(CC)(CC)c2cc(-c4cccs4)ccc2-3)C(CC)(CC)c2cc(-c3cccs3)ccc2-1
- absorption maximum (in C1CCOC1): 338 nm

Compound: CCN(CC)c1ccc(-c2nc(Oc3ccc(-c4nc5ccccc5[nH]4)cc3)nc(Oc3ccc(-c4nc5ccccc5[nH]4)cc3)n2)cc1
- absorption maximum (in CN(C)C=O): 376 nm

Compound: CN1/C(=C/C=C(/C=C/c2sc3ccccc3[n+]2C)c2ccc(F)cc2)Sc2ccccc21
- absorption maximum (in CCO): 648 nm
- absorption maximum (in CO): 646 nm
- absorption maximum (in CS(C)=O): 656 nm
- absorption maximum (in O): 641 nm

Compound: Cc1cc(C)c(B(c2ccc(-c3ccc(-c4nc5c6ccccc6c6ccccc6c5[nH]4)cc3)cc2)c2c(C)cc(C)cc2C)c(C)c1
- absorption maximum (in C1CCOC1): 375 nm
- absorption maximum (in CC(C)=O): 373 nm
- absorption maximum (in CS(C)=O): 378 nm
- absorption maximum (in Cc1ccccc1): 374 nm
- absorption maximum (in ClCCl): 371 nm

Compound: CC(=O)Nc1ccc(C2=C/C(=C\c3ccc(C#N)cc3)C(=O)N2CC(C)C)cc1
- absorption maximum (in C1COCCO1): 450 nm
